Measured values reported in the NIST ThermoML archive (doi:10.1016/j.tca.2005.10.007).

Test: xn = mol fraction of the nth substance listed
Details: 101 kPa, Liquid, Vibrating tube method

CC(O)CN (centres undefined) [1-amino-2-propanol] + O
mass density [kg/m3]
Details | 298.15 K | 303.15 K | 308.15 K | 313.15 K | 318.15 K
x2 = 0.0438 | – | 954.42 | 950.39 | 946.34 | 942.26
x2 = 0.0801 | – | 956.01 | 952 | 947.96 | 943.89
x2 = 0.1269 | – | 958.41 | 954.42 | 950.39 | 946.33
x2 = 0.1584 | – | 959.89 | 955.9 | 951.88 | 947.83
x2 = 0.2003 | – | 962.09 | 958.11 | 954.1 | 950.06
x2 = 0.2999 | – | 967.94 | 963.99 | 960 | 955.98
x2 = 0.3498 | – | 971.12 | 967.18 | 963.21 | 959.19
x2 = 0.3999 | – | 974.27 | 970.34 | 966.36 | 962.35
x2 = 0.4499 | – | 977.71 | 973.78 | 969.81 | 965.8
x2 = 0.4968 | – | 981.12 | 977.19 | 973.23 | 969.22
x2 = 0.5122 | – | 982.33 | 978.4 | 974.44 | –
x2 = 0.5501 | – | 985.01 | 981.09 | 977.12 | –
x2 = 0.6001 | – | 988.93 | 985.01 | 981.05 | –
x2 = 0.6501 | – | 992.61 | 988.7 | 984.75 | –
x2 = 0.7 | – | 996.09 | 992.22 | 988.3 | –
x2 = 0.7501 | 1002.84 | 999.1 | 995.31 | 991.48 | –
x2 = 0.8 | 1004.58 | 1001.02 | 997.41 | 993.74 | –
x2 = 0.84 | 1004.86 | 1001.58 | 998.22 | 994.79 | –
x2 = 0.88 | 1003.61 | 1000.73 | 997.76 | 994.67 | –
x2 = 0.92 | 1001.17 | 998.83 | 996.33 | 993.7 | –
x2 = 0.96 | 998.26 | 996.47 | 994.49 | 992.33 | –
